Measured values reported in PMC12307812 (Nature Communications, 2025).
Read-outs that look alike come from different tables or passages of the source.

How the values were obtained:
[1] = target: T1, Recombinant Human TMPRSS2 (Homo sapiens, UniProt O15393); assay: TMPRSS2 biochemical assay with pre-incubation of inhibitor and enzyme; details: for inhibition at 2.788 pM: concentration 0.00278767 nM; for inhibition at 8.363 pM: concentration 0.00836301 nM; for inhibition at 25.09 pM: concentration 0.025089 nM; for inhibition at 75.27 pM: concentration 0.0752671 nM; for inhibition at 0.000225801 µM: concentration 0.225801 nM; for inhibition at 0.000677404 µM: concentration 0.677404 nM; for inhibition at 0.00203221 µM: concentration 2.03221 nM; for inhibition at 0.00609663 µM: concentration 6.09663 nM; for inhibition at 0.0182899 µM: concentration 18.2899 nM; for inhibition at 0.0548697 µM: concentration 54.8697 nM; for inhibition at 0.164609 µM: concentration 164.609 nM; for inhibition at 0.493827 µM: concentration 493.827 nM; for inhibition at 1.48148 µM: concentration 1481.48 nM; for inhibition at 4.44444 µM: concentration 4444.44 nM; for inhibition at 13.3333 µM: concentration 13333.3 nM; for inhibition at 40 µM: concentration 40000 nM
T1 construct: human TMPRSS2 residues 106492, N-terminal 6x His-tag; 6x His-tag (N); purchased Cusabio CSB-YP023924HU; host or cells: yeast
Protocol: To that was dispensed TMPRSS2 (5 µl, 0.018 mg/ml) in assay buffer (50 mM Tris pH 8, 150 mM NaCl, 0.01% Tween20) using a BioRAPTR (Beckman Coulter) to give a total reaction volume of 5 µl. […] The final assay conditions are 10 µM peptide, 0.018 mg/ml TMPRSS2 in assay buffer (50 mM Tris-HCl, pH 8, 150 mM NaCl, 0.01% Tween20).
After incubation at room temperature for 1 h, fluorescence was measured. […] Raw plate reads for each titration point were normalized relative to a positive control containing no enzyme (0% activity, full inhibition) and a negative control containing DMSO-only wells (100% activity, basal activity). Data normalization was performed using GraphPad Prism (GraphPad Software, San Diego, CA).
We employed the curve fitting algorithm available in the SciPy package (version 1.10.1)[61] to derive the Hill slope and the IC50 value, along with their corresponding error estimates.
To model the relationship between the pre-incubation time and the IC50, we use the following equation inspired by the Morse potential:3 ft,a,D,te=D⋅1−exp−a⋅t−te^2 where t is the time, a is the width of the well, D is the IC50 at infinite time (depth of the well) and te is the time at which the IC50 reaches its minimum. Again, we made use of SciPy’s curve fitting method to obtain parameters a, D and te, with their respective error estimates.

[2] = tested on: pseudovirus bearing S protein of SARS-CoV-2 lineage BA.2.86; assay: organism not typed; format: cell-based
[3] = tested on: pseudovirus bearing S protein of SARS-CoV-2 lineage EG.5.1; assay: organism not typed; format: cell-based

T1 sequence (O15393 106-492 limits assumed): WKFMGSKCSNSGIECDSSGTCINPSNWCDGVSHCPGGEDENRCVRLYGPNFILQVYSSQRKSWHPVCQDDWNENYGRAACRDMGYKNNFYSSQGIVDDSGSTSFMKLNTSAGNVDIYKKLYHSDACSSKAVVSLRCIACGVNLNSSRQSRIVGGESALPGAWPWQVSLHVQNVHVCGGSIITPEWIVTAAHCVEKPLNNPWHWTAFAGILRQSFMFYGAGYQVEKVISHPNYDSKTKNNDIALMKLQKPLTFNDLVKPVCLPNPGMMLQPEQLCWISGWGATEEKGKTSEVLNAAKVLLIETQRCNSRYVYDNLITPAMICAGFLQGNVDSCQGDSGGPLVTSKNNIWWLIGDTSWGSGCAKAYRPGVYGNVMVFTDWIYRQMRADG

CC(C)(C)NC(=O)N1CCN(C(=O)N2C(=O)C(CCCNC(=N)N)C2C(=O)O)CC1 (stereo not drawn) [BMS-262084]
fold IC50 relative to camostat and nafamostat ([1]; after 48 h of pre-incubation): 5 fold
inhibition at 2.788 pM ([1]; pre-incubation 0): -15.1%
inhibition at 8.363 pM ([1]; pre-incubation 0): -14.4%
inhibition at 25.09 pM ([1]; pre-incubation 0): -2.55%
inhibition at 75.27 pM ([1]; pre-incubation 0): 9.07%
inhibition at 0.000225801 µM ([1]; pre-incubation 0): 39.6%
inhibition at 0.000677404 µM ([1]; pre-incubation 0): 61.8%
inhibition at 0.00203221 µM ([1]; pre-incubation 0): 83.9%
inhibition at 0.00609663 µM ([1]; pre-incubation 0): 90.2%
inhibition at 0.0182899 µM ([1]; pre-incubation 0): 93.8%
inhibition at 0.0548697 µM ([1]; pre-incubation 0): 94.7%
inhibition at 0.164609 µM ([1]; pre-incubation 0): 96.7%
inhibition at 0.493827 µM ([1]; pre-incubation 0): 97.7%
inhibition at 1.48148 µM ([1]; pre-incubation 0): 98.2%
inhibition at 4.44444 µM ([1]; pre-incubation 0): 98%
inhibition at 13.3333 µM ([1]; pre-incubation 0): 101%
inhibition at 40 µM ([1]; pre-incubation 0): 100%
inhibition at 2.788 pM ([1]; pre-incubation 1): 9.6%
inhibition at 8.363 pM ([1]; pre-incubation 1): 9.83%
inhibition at 25.09 pM ([1]; pre-incubation 1): 32.2%
inhibition at 75.27 pM ([1]; pre-incubation 1): 60.8%
inhibition at 0.000225801 µM ([1]; pre-incubation 1): 90%
inhibition at 0.000677404 µM ([1]; pre-incubation 1): 96.9%
inhibition at 0.00203221 µM ([1]; pre-incubation 1): 97.1%
inhibition at 0.00609663 µM ([1]; pre-incubation 1): 97.8%
inhibition at 0.0182899 µM ([1]; pre-incubation 1): 97.1%
inhibition at 0.0548697 µM ([1]; pre-incubation 1): 97.8%
inhibition at 0.164609 µM ([1]; pre-incubation 1): 97.6%
inhibition at 0.493827 µM ([1]; pre-incubation 1): 98.2%
inhibition at 1.48148 µM ([1]; pre-incubation 1): 99.5%
inhibition at 4.44444 µM ([1]; pre-incubation 1): 100%
inhibition at 13.3333 µM ([1]; pre-incubation 1): 101%
inhibition at 40 µM ([1]; pre-incubation 1): 102%
inhibition at 2.788 pM ([1]; pre-incubation 4): 5.94%
inhibition at 8.363 pM ([1]; pre-incubation 4): 11.2%
inhibition at 25.09 pM ([1]; pre-incubation 4): 52.1%
inhibition at 75.27 pM ([1]; pre-incubation 4): 87.4%
inhibition at 0.000225801 µM ([1]; pre-incubation 4): 99.5%
inhibition at 0.000677404 µM ([1]; pre-incubation 4): 99.4%
inhibition at 0.00203221 µM ([1]; pre-incubation 4): 99.5%
inhibition at 0.00609663 µM ([1]; pre-incubation 4): 99.5%
inhibition at 0.0182899 µM ([1]; pre-incubation 4): 99.8%
inhibition at 0.0548697 µM ([1]; pre-incubation 4): 99.8%
inhibition at 0.164609 µM ([1]; pre-incubation 4): 100%
inhibition at 0.493827 µM ([1]; pre-incubation 4): 100%
inhibition at 1.48148 µM ([1]; pre-incubation 4): 101%
inhibition at 4.44444 µM ([1]; pre-incubation 4): 101%
inhibition at 13.3333 µM ([1]; pre-incubation 4): 103%
inhibition at 40 µM ([1]; pre-incubation 4): 102%
inhibition at 2.788 pM ([1]; pre-incubation 8): 25.7%
inhibition at 8.363 pM ([1]; pre-incubation 8): 29.7%
inhibition at 25.09 pM ([1]; pre-incubation 8): 84.9%
inhibition at 75.27 pM ([1]; pre-incubation 8): 109%
inhibition at 0.000225801 µM ([1]; pre-incubation 8): 113%
inhibition at 0.000677404 µM ([1]; pre-incubation 8): 114%
inhibition at 0.00203221 µM ([1]; pre-incubation 8): 114%
inhibition at 0.00609663 µM ([1]; pre-incubation 8): 116%
inhibition at 0.0182899 µM ([1]; pre-incubation 8): 115%
inhibition at 0.0548697 µM ([1]; pre-incubation 8): 116%
inhibition at 0.164609 µM ([1]; pre-incubation 8): 116%
inhibition at 0.493827 µM ([1]; pre-incubation 8): 116%
inhibition at 1.48148 µM ([1]; pre-incubation 8): 118%
inhibition at 4.44444 µM ([1]; pre-incubation 8): 119%
inhibition at 13.3333 µM ([1]; pre-incubation 8): 118%
inhibition at 40 µM ([1]; pre-incubation 8): 118%
inhibition at 2.788 pM ([1]; pre-incubation 18): 20.8%
inhibition at 8.363 pM ([1]; pre-incubation 18): 24.6%
inhibition at 25.09 pM ([1]; pre-incubation 18): 83.1%
inhibition at 75.27 pM ([1]; pre-incubation 18): 92.8%
inhibition at 0.000225801 µM ([1]; pre-incubation 18): 95.2%
inhibition at 0.000677404 µM ([1]; pre-incubation 18): 95.6%
inhibition at 0.00203221 µM ([1]; pre-incubation 18): 98.1%
inhibition at 0.00609663 µM ([1]; pre-incubation 18): 98.2%
inhibition at 0.0182899 µM ([1]; pre-incubation 18): 99.5%
inhibition at 0.0548697 µM ([1]; pre-incubation 18): 101%
inhibition at 0.164609 µM ([1]; pre-incubation 18): 102%
inhibition at 0.493827 µM ([1]; pre-incubation 18): 103%
inhibition at 1.48148 µM ([1]; pre-incubation 18): 102%
inhibition at 4.44444 µM ([1]; pre-incubation 18): 103%
inhibition at 13.3333 µM ([1]; pre-incubation 18): 104%
inhibition at 40 µM ([1]; pre-incubation 18): 105%
inhibition at 2.788 pM ([1]; pre-incubation 24): 45.1%
inhibition at 8.363 pM ([1]; pre-incubation 24): 50.8%
inhibition at 25.09 pM ([1]; pre-incubation 24): 105%
inhibition at 75.27 pM ([1]; pre-incubation 24): 110%
inhibition at 0.000225801 µM ([1]; pre-incubation 24): 114%
inhibition at 0.000677404 µM ([1]; pre-incubation 24): 114%
inhibition at 0.00203221 µM ([1]; pre-incubation 24): 114%
inhibition at 0.00609663 µM ([1]; pre-incubation 24): 115%
inhibition at 0.0182899 µM ([1]; pre-incubation 24): 116%
inhibition at 0.0548697 µM ([1]; pre-incubation 24): 115%
inhibition at 0.164609 µM ([1]; pre-incubation 24): 116%
inhibition at 0.493827 µM ([1]; pre-incubation 24): 116%
inhibition at 1.48148 µM ([1]; pre-incubation 24): 117%
inhibition at 4.44444 µM ([1]; pre-incubation 24): 117%
inhibition at 13.3333 µM ([1]; pre-incubation 24): 117%
inhibition at 40 µM ([1]; pre-incubation 24): 117%
inhibition at 2.788 pM ([1]; pre-incubation 48): 32.3%
inhibition at 8.363 pM ([1]; pre-incubation 48): 30.9%
inhibition at 25.09 pM ([1]; pre-incubation 48): 88.5%
inhibition at 75.27 pM ([1]; pre-incubation 48): 93.1%
inhibition at 0.000225801 µM ([1]; pre-incubation 48): 95.9%
inhibition at 0.000677404 µM ([1]; pre-incubation 48): 96.1%
inhibition at 0.00203221 µM ([1]; pre-incubation 48): 94.8%
inhibition at 0.00609663 µM ([1]; pre-incubation 48): 94.5%
inhibition at 0.0182899 µM ([1]; pre-incubation 48): 96.1%
inhibition at 0.0548697 µM ([1]; pre-incubation 48): 96.3%
inhibition at 0.164609 µM ([1]; pre-incubation 48): 97.7%
inhibition at 0.493827 µM ([1]; pre-incubation 48): 99.7%
inhibition at 1.48148 µM ([1]; pre-incubation 48): 101%
inhibition at 4.44444 µM ([1]; pre-incubation 48): 105%
inhibition at 13.3333 µM ([1]; pre-incubation 48): 109%
inhibition at 40 µM ([1]; pre-incubation 48): 112%
inhibition at 0.00025 µM ([2]; Calu-3, BA.2.86, concentration 0.25 nM): 2.76%
inhibition at 0.0025 µM ([2]; Calu-3, BA.2.86, concentration 2.5 nM): 1.45%
inhibition at 0.025 µM ([2]; Calu-3, BA.2.86, concentration 25 nM): 44.5%
inhibition at 0.25 µM ([2]; Calu-3, BA.2.86, concentration 250 nM): 74.7%
inhibition at 2.5 µM ([2]; Calu-3, BA.2.86, concentration 2500 nM): 89.7%
inhibition at 25 µM ([2]; Calu-3, BA.2.86, concentration 25000 nM): 98.9%
IC50 ([2]; Calu-3 cells, read-out: IC50, pseudovirus cell entry BA.2.86): 0.0482 µM
inhibition at 0.00025 µM ([3]; Calu-3, EG.5.1, concentration 0.25 nM): 10.3%
inhibition at 0.0025 µM ([3]; Calu-3, EG.5.1, concentration 2.5 nM): 16.8%
inhibition at 0.025 µM ([3]; Calu-3, EG.5.1, concentration 25 nM): 26.9%
inhibition at 0.25 µM ([3]; Calu-3, EG.5.1, concentration 250 nM): 51.3%
inhibition at 2.5 µM ([3]; Calu-3, EG.5.1, concentration 2500 nM): 58.1%
inhibition at 25 µM ([3]; Calu-3, EG.5.1, concentration 25000 nM): 57.8%
fold less efficient inhibition of EG.5.1-S entry compared to B.1-S, B.1.617.2-S or BA.2.86-S ([3]; Calu-3 cells): 20–50 fold
IC50 ([3]; Calu-3 cells, Fig. 4g, read-out: IC50 estimate, pseudovirus cell entry EG.5.1): 1.2 ± 0.763 µM
IC50 ([3]; Calu-3 cells, read-out: IC50, EG.5.1-S protein-driven Calu-3 cell entry): 1.2 µM
